Columns and labels:
Assay in all cases: Bliss excess, mean over the matrix (fraction); higher = more synergy
[1] = system: LU-165 (Small Cell Lung Carcinoma)
Outline: (§1)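 Bliss excess equals the observed combination effect minus the expected value EA + EB − EA·EB, where EA and EB are the effects of each agent alone. Combination Emax is the second-highest inhibition within the matrix. Inhibition was scaled from CellTiter-Glo 2.0 luminescence, with 0 set by vehicle wells and 1 by blank wells, after 72 hours of two-drug dosing of cells plated in 1536-well plates.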

[2] = system: NCI-H2087 (Lung Adenocarcinoma)
Outline: as §1

[3] = system: 22RV1 (Prostate Carcinoma)
Outline: as §1

[4] = system: CESS (Acute Myeloid Leukemia)
Outline: as §1

[5] = system: CGTH-W-1 (Thyroid Gland Carcinoma)
Outline: as §1

[6] = system: MDA-MB-436 (Breast Carcinoma)
Outline: as §1

[7] = system: HT55 (Colorectal Carcinoma)
Outline: as §1

[8] = system: SW620 (Colorectal Carcinoma)
Outline: as §1

[9] = system: GCT (Other Solid Carcinomas)
Outline: as §1

769-P (Kidney Carcinoma) = system: 769-P (Kidney Carcinoma)
Outline: as §1

[10] = system: JVM-2 (B-Cell Non-Hodgkin's Lymphoma)
Outline: as §1

[11] = system: A2780 (Ovarian Carcinoma)
Outline: as §1

[12] = system: huH-1 (Hepatocellular Carcinoma)
Outline: as §1

[13] = system: UACC-812 (Breast Carcinoma)
Outline: as §1

AU565 (Breast Carcinoma) = system: AU565 (Breast Carcinoma)
Outline: as §1

A101D (Melanoma) = system: A101D (Melanoma)
Outline: as §1

[14] = system: A253 (Head and Neck Carcinoma)
Outline: as §1

A204 (Rhabdomyosarcoma) = system: A204 (Rhabdomyosarcoma)
Outline: as §1

[15] = system: NCI-H2228 (Lung Adenocarcinoma)
Outline: as §1

[16] = system: NCI-H716 (Colorectal Carcinoma)
Outline: as §1

Row | Compound | Bliss excess [1] | Bliss excess [2] | Bliss excess [3] | Bliss excess [4] | Bliss excess [5] | Bliss excess [6] | Bliss excess [7] | Bliss excess [8] | Bliss excess [9] | Bliss excess (769-P (Kidney Carcinoma)) | Bliss excess [10] | Bliss excess [11] | Bliss excess [12] | Bliss excess [13] | Bliss excess (AU565 (Breast Carcinoma)) | Bliss excess (A101D (Melanoma)) | Bliss excess [14] | Bliss excess (A204 (Rhabdomyosarcoma)) | Bliss excess [15] | Bliss excess [16]
1 | CCc1c2c(nc3ccc(O)cc13)-c1cc3c(c(=O)n1C2)COC(=O)[C@]3(O)CC [SN-38] + O=C(c1cc(Cc2n[nH]c(=O)c3ccccc23)ccc1F)N1CCN(C(=O)C2CC2)CC1 [Olaparib] (first compound max 0.3 µM, 7x7, partner max 10 µM) | 0.0203 | 0.017 | 0.0497 | 0.0785 | 0.0526 | 0.0627 | 0.0966 | 0.0524 | 0.103 | 0.0592 | 0.115 | 0.0545 | 0.0467 | 0.0333 | 0.0698 | 0.114 | 0.0223 |  |  | 
2 | CN(C)CCCOc1ccc(-c2ccc3ncc4c(c3c2)n(C2CCOCC2)c(=O)n4C)cn1 [AZD0156] + C[C@@H]1COCCN1C2=NC(=NC(=C2)C3(CC3)[S@](=N)(=O)C)C4=C5C=CNC5=NC=C4 [AZD6738] (first compound max 1 µM, 7x7, partner max 10 µM) | -0.0515 | -0.0008 | -0.0678 | 0.0386 | -0.0189 | -0.0396 | -0.0042 | 0.0308 | 0.0062 | 0.0253 | 0.0025 | -0.0114 | 0.0019 | -0.0108 | 0.0094 | 0.0058 | 0.0145 | -0.038 | -0.024 | 0.0459
3 | COc1nnc2ccc(N3CCC(c4ccc(OCCN5CCN(C)C(=O)[C@H]5C)cc4)CC3)nn12 [AZD5153] + C=CCn1c(=O)c2cnc(Nc3ccc(N4CCN(C)CC4)cc3)nc2n1-c1cccc(C(C)(C)O)n1 [AZD1775] (first compound max 1 µM, partner max 1 µM) | 0.0026 | -0.0368 | 0.0047 | -0.0643 | 0.0137 | -0.0783 | -0.0112 | -0.0753 | 0.0168 | -0.0321 | -0.0959 | -0.0523 | 0.024 | -0.0066 | -0.0144 | -0.0825 | -0.0328 | -0.0887 | -0.0784 | -0.0734
4 | NC1(C(=O)N[C@@H](CCO)c2ccc(Cl)cc2)CCN(c2ncnc3[nH]ccc23)CC1 [Capivasertib] + Cn1cnc2c(F)c(Nc3ccc(Br)cc3Cl)c(C(=O)NOCCO)cc21 [Selumetinib] (first compound max 10 µM, 7x7, partner max 10 µM) | -0.0404 | 0.016 | -0.0044 | -0.0147 | 0.0262 | 0.0258 | -0.0042 | 0.0186 | -0.0354 | 0.0062 | 0.0533 | 0.0151 | -0.0199 |  | 0.0183 | 0.0628 | 0.0591 | 0.0013 | 0.017 | 0.119
5 | CC(=O)c1c(C)c2cnc(Nc3ccc(N4CCNCC4)cn3)nc2n(C2CCCC2)c1=O [Palbociclib] + CC1(C)CCC(CN2CCN(c3ccc(C(=O)NS(=O)(=O)c4ccc(NCC5CCOCC5)c([N+](=O)[O-])c4)c(Oc4cnc5[nH]ccc5c4)c3)CC2)=C(c2ccc(Cl)cc2)C1 [Venetoclax] (first compound max 10 µM, 7x7, partner max 1 µM) | -0.0502 | -0.0596 | -0.0571 | -0.0272 | -0.0219 | -0.0345 | 0.0107 | -0.0248 | 0.0353 | -0.0158 | -0.0273 | 0.0005 | -0.0529 |  | 0.0161 | -0.0025 | -0.0555 | 0.0194 | 0.005 | 0.0345
6 | NC1(C(=O)N[C@@H](CCO)c2ccc(Cl)cc2)CCN(c2ncnc3[nH]ccc23)CC1 [Capivasertib] + CCN(CCO)CCCOc1ccc2c(Nc3cc(CC(=O)Nc4cccc(F)c4)[nH]n3)ncnc2c1 [AZD2811] (first compound max 10 µM, 7x7, partner max 1 µM) | -0.0323 | -0.0243 | -0.0373 | 0.0217 | 0.0234 | -0.0424 | -0.0412 | -0.029 | -0.0017 | -0.0139 | -0.142 | 0.05 | -0.0695 |  | -0.0229 | -0.0282 | -0.0346 | -0.0058 | -0.041 | -0.0402
7 | CC(=O)c1c(C)c2cnc(Nc3ccc(N4CCNCC4)cn3)nc2n(C2CCCC2)c1=O [Palbociclib] + Cn1cnc2c(F)c(Nc3ccc(Br)cc3Cl)c(C(=O)NOCCO)cc21 [Selumetinib] (first compound max 10 µM, 7x7, partner max 10 µM) | -0.0518 | -0.0101 | 0.0328 | 0.0202 | -0.036 | 0.0157 | 0.0782 | 0.0191 | -0.0369 | 0.039 | 0.0271 | 0.0327 | -0.0455 |  | 0.0052 | -0.0907 | -0.0864 | -0.0261 | -0.0822 | -0.0843
